Experimental data: the supplement of paper PMC6004109

Assays:
Conditions in all cases: temperature: 37 °C
[1] = system: Saccharomyces cerevisiae ZIM 2255 (RPMI); assay: Bliss independence sum of statistically significant ΔE (measured minus predicted growth inhibition) over checkerboard surface (fraction (sum of ΔE; 1 = 100%)); higher = more synergy
[2] = system: Saccharomyces cerevisiae ZIM 2558 (RPMI); assay: as above
[3] = system: Candida glabrata ZIM 2365 (RPMI); assay: as above
[4] = system: Candida glabrata ZIM 2389 (RPMI); assay: as above
[5] = system: Candida glabrata ZIM 2385 (RPMI); assay: as above
[6] = system: Saccharomyces cerevisiae ZIM 2247 (RPMI); assay: as above
[7] = system: Candida glabrata ZIM 2382 (RPMI); assay: as above
[8] = system: Saccharomyces cerevisiae ZIM 2566 (RPMI); assay: as above
[9] = system: Saccharomyces cerevisiae ZIM 2269 (RPMI); assay: as above
[10] = system: Candida glabrata ZIM 2344 (RPMI); assay: as above
[11] = system: Candida glabrata ZIM 2369 (RPMI); assay: as above
[12] = system: Saccharomyces cerevisiae ZIM 2255 (RPMI); assay: FICI minimum (fractional inhibitory concentration index, Loewe) (dimensionless); higher = less synergy / more antagonism
Procedure: (§1)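 CLSI M27-A3 checkerboard broth microdilution of an immunomodulatory drug (or amoxicillin) combined with an antifungal against S. cerevisiae and C. glabrata isolates. Growth was read as OD600 after incubation at 37 °C (48 h for the reported MICs). Reported quantities are the FICI (Loewe: MIC50 for azoles and immunomodulators, MIC90 for AMB; ≤0.5 synergy, ≥4 antagonism), as minimum and maximum over the surface, and the Bliss-independence sum of statistically significant ΔE (positive = synergy). Clinical isolates were tested in RPMI; C. glabrata ATCC 2001 and its pdr1Δ mutant were tested in YPD.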

[13] = system: Saccharomyces cerevisiae ZIM 2558 (RPMI); assay: as above
Procedure: as §1

[14] = system: Candida glabrata ZIM 2365 (RPMI); assay: as above
Procedure: as §1

[15] = system: Candida glabrata ZIM 2389 (RPMI); assay: as above
Procedure: as §1

[16] = system: Candida glabrata ZIM 2385 (RPMI); assay: as above
Procedure: as §1

[17] = system: Saccharomyces cerevisiae ZIM 2247 (RPMI); assay: as above
Procedure: as §1

[18] = system: Candida glabrata ZIM 2382 (RPMI); assay: as above
Procedure: as §1

[19] = system: Saccharomyces cerevisiae ZIM 2566 (RPMI); assay: as above
Procedure: as §1

[20] = system: Saccharomyces cerevisiae ZIM 2269 (RPMI); assay: as above
Procedure: as §1

[21] = system: Candida glabrata ZIM 2344 (RPMI); assay: as above
Procedure: as §1

[22] = system: Candida glabrata ZIM 2369 (RPMI); assay: as above
Procedure: as §1

[23] = system: Saccharomyces cerevisiae ZIM 2255 (RPMI); assay: FICI maximum (fractional inhibitory concentration index, Loewe) (dimensionless); higher = less synergy / more antagonism
Procedure: as §1

[24] = system: Saccharomyces cerevisiae ZIM 2558 (RPMI); assay: as above
Procedure: as §1

[25] = system: Candida glabrata ZIM 2365 (RPMI); assay: as above
Procedure: as §1

[26] = system: Candida glabrata ZIM 2389 (RPMI); assay: as above
Procedure: as §1

[27] = system: Candida glabrata ZIM 2385 (RPMI); assay: as above
Procedure: as §1

[28] = system: Saccharomyces cerevisiae ZIM 2247 (RPMI); assay: as above
Procedure: as §1

[29] = system: Candida glabrata ZIM 2382 (RPMI); assay: as above
Procedure: as §1

[30] = system: Saccharomyces cerevisiae ZIM 2566 (RPMI); assay: as above
Procedure: as §1

[31] = system: Saccharomyces cerevisiae ZIM 2269 (RPMI); assay: as above
Procedure: as §1

[32] = system: Candida glabrata ZIM 2344 (RPMI); assay: as above
Procedure: as §1

[33] = system: Candida glabrata ZIM 2369 (RPMI); assay: as above
Procedure: as §1

[34] = system: Candida glabrata ATCC 2001 (YPD); assay: Bliss independence sum of statistically significant ΔE (measured minus predicted growth inhibition) over checkerboard surface (fraction (sum of ΔE; 1 = 100%)); higher = more synergy
[35] = system: Candida glabrata ATCC 2001 (YPD); assay: FICI minimum (fractional inhibitory concentration index, Loewe) (dimensionless); higher = less synergy / more antagonism
Procedure: as §1

[36] = system: Candida glabrata ATCC 2001 (YPD); assay: FICI maximum (fractional inhibitory concentration index, Loewe) (dimensionless); higher = less synergy / more antagonism
Procedure: as §1

[37] = system: Saccharomyces cerevisiae ZIM 2260 (RPMI); assay: Bliss independence sum of statistically significant ΔE (measured minus predicted growth inhibition) over checkerboard surface (fraction (sum of ΔE; 1 = 100%)); higher = more synergy
[38] = system: Saccharomyces cerevisiae ZIM 2260 (RPMI); assay: FICI minimum (fractional inhibitory concentration index, Loewe) (dimensionless); higher = less synergy / more antagonism
Procedure: as §1

[39] = system: Saccharomyces cerevisiae ZIM 2260 (RPMI); assay: FICI maximum (fractional inhibitory concentration index, Loewe) (dimensionless); higher = less synergy / more antagonism
Procedure: as §1

| SMILES | Bliss independence sum [1] | Bliss independence sum [2] | Bliss independence sum [3] | Bliss independence sum [4] | Bliss independence sum [5] | Bliss independence sum [6] | Bliss independence sum [7] | Bliss independence sum [8] | Bliss independence sum [9] | Bliss independence sum [10] | Bliss independence sum [11] | FICI minimum [12] | FICI minimum [13] | FICI minimum [14] | FICI minimum [15] | FICI minimum [16] | FICI minimum [17] | FICI minimum [18] | FICI minimum [19] | FICI minimum [20] | FICI minimum [21] | FICI minimum [22] | FICI maximum [23] | FICI maximum [24] | FICI maximum [25] | FICI maximum [26] | FICI maximum [27] | FICI maximum [28] | FICI maximum [29] | FICI maximum [30] | FICI maximum [31] | FICI maximum [32] | FICI maximum [33] | Bliss independence sum [34] | FICI minimum [35] | FICI maximum [36] | Bliss independence sum [37] | FICI minimum [38] | FICI maximum [39] |
| --- | --- | --- | --- | --- | --- | --- | --- | --- | --- | --- | --- | --- | --- | --- | --- | --- | --- | --- | --- | --- | --- | --- | --- | --- | --- | --- | --- | --- | --- | --- | --- | --- | --- | --- | --- | --- | --- | --- | --- |
| CC1(C)S[C@@H]2[C@H](NC(=O)[C@H](N)c3ccc(O)cc3)C(=O)N2[C@H]1C(=O)O [amoxicillin] + OC(Cn1cncn1)(Cn1cncn1)c1ccc(F)cc1F [fluconazole] | -2.93 | 1.93 | -0.019 | 2.98 | 1.92 | -1.44 | 0.34 | 0.455 | -1.87 | 0.963 | 1.02 | 2.01 | 0.508 | 1.01 | 1.02 | 1.02 | 1.02 | 1.01 | 0.516 | 1.03 | 0.508 | 1.01 | 2.12 | 1.25 | 1.25 | 2.25 | 1.5 | 2.12 | 1.25 | 1.25 | 2 | 0.75 | 1.25 | – | – | – | – | – | – |
| COc1c(C)c2c(c(O)c1C/C=C(\C)CCC(=O)O)C(=O)OC2 [mycophenolic acid] + CC(=O)N1CCN(c2ccc(OCC3COC(Cn4ccnc4)(c4ccc(Cl)cc4Cl)O3)cc2)CC1 [ketoconazole] | – | – | – | – | – | – | – | – | – | – | – | – | – | – | – | – | – | – | – | – | – | – | – | – | – | – | – | – | – | – | – | – | – | -2.13 | 1.25 | 4.12 | – | – | – |
| COc1c(C)c2c(c(O)c1C/C=C(\C)CCC(=O)O)C(=O)OC2 [mycophenolic acid] + CCC(C)n1ncn(-c2ccc(N3CCN(c4ccc(OCC5COC(Cn6cncn6)(c6ccc(Cl)cc6Cl)O5)cc4)CC3)cc2)c1=O [itraconazole] | 2.31 | -4.07 | 0.327 | 4.83 | 3.12 | -0.0362 | 0.427 | – | 0.69 | 10 | -0.825 | 0.517 | 2.01 | 0.516 | 0.508 | 0.508 | 1.02 | 0.508 | – | 1.03 | 0.174 | 1.01 | 1.13 | 4.25 | 4.12 | 1.25 | 1.02 | 2.53 | 0.75 | – | 1.25 | 1.62 | 2.25 | – | – | – | -2.11 | 1 | 2.16 |
| COc1c(C)c2c(c(O)c1C/C=C(\C)CCC(=O)O)C(=O)OC2 [mycophenolic acid] + CC[C@@H]([C@H](C)O)n1ncn(-c2ccc(N3CCN(c4ccc(OC[C@@H]5CO[C@@](Cn6cncn6)(c6ccc(F)cc6F)C5)cc4)CC3)cc2)c1=O [posaconazole] | – | – | – | – | – | – | – | – | – | – | – | – | – | – | – | – | – | – | – | – | – | – | – | – | – | – | – | – | – | – | – | – | – | -3.21 | 1.5 | 4.12 | – | – | – |
| COc1c(C)c2c(c(O)c1C/C=C(\C)CCC(=O)O)C(=O)OC2 [mycophenolic acid] + C[C@@H](c1ncncc1F)[C@](O)(Cn1cncn1)c1ccc(F)cc1F [voriconazole] | – | – | – | – | – | – | – | – | – | – | – | – | – | – | – | – | – | – | – | – | – | – | – | – | – | – | – | – | – | – | – | – | – | -2.31 | 1.06 | 2.5 | – | – | – |
